Source: PMC10819888, “Benzimidazole-Based Derivatives as Apoptotic Antiproliferative Agents: Design, Synthesis, Docking, and Mechanistic Studies” (Molecules, 2024)

Tests used:
Experiment in all cases: NCI-60 one-dose assay
Format in all cases: cell-based
786-0 = conditions: Homo sapiens, 786-0 (Renal Cancer), read-out: Cell Inhibition Percent
Description: (§1) The final compounds were submitted to the National Cancer Institute, Bethesda, USA, for screening in vitro for anti-cancer. […] compounds, 4a–j, 5, and 6, were selected according to the Development Therapeutic Program (DTP) protocol. The selected compounds were evaluated for their in vitro cytotoxic activity against a panel of sixty cancer cell lines (NCI-60 cell line panel) derived from six cell lines panel of leukemia, nine cell lines of lung cancer, six cell lines of CNS cancer, seven cell lines of colon cancer, eight cell lines of melanoma, six cell lines of ovarian cancer, eight cell lines of renal cancer, two cell lines of prostate cancer, and eight cell lines of breast cancer, representing the full nine human systems as leukemia, melanoma, and cancers of the lung, colon, brain, breast, ovary, kidney, and prostate.
(§2) The selected compounds 4a–j, 5, and 6 were tested at a single concentration of 10 µM. The screening results for the selected compounds are illustrated in Table 1.
(§3) The NCI anti-cancer screening methodology has been described in detail elsewhere (http://www.dtp.nci.nih.gov, accessed on 20 February 2021). Following the Drug Evaluation Branch protocol, National Cancer Institute, Bethesda, USA, a primary anti-cancer assay was performed on approximately 60 human tumor cell line panels derived from nine neoplastic diseases.

A498 = conditions: Homo sapiens, A498 (Renal Cancer), read-out: Cell Inhibition Percent
Description: as §1, §2, §3

ACHN = conditions: Homo sapiens, ACHN (Renal Cancer), read-out: Cell Inhibition Percent
Description: as §1, §2, §3

BT-549 = conditions: Homo sapiens, BT-549 (Breast Cancer), read-out: Cell Inhibition Percent
Description: as §1, §2, §3

CAKI-1 = conditions: Homo sapiens, CAKI-1 (Renal Cancer), read-out: Cell Inhibition Percent
Description: as §1, §2, §3

DU-145 = conditions: Homo sapiens, DU-145 (Prostate Cancer), read-out: Cell Inhibition Percent
Description: as §1, §2, §3

HCC-2998 = conditions: Homo sapiens, HCC-2998 (Colon Cancer), read-out: Cell Inhibition Percent
Description: as §1, §2, §3

HCT-116 = conditions: Homo sapiens, HCT-116 (Colon Cancer), read-out: Cell Inhibition Percent
Description: as §1, §2, §3

HCT-15 = conditions: Homo sapiens, HCT-15 (Colon Cancer), read-out: Cell Inhibition Percent
Description: as §1, §2, §3

HL-60(TB) = conditions: Homo sapiens, HL-60(TB) (Leukemia), read-out: Cell Inhibition Percent
Description: as §1, §2, §3

HOP-62 = conditions: Homo sapiens, HOP-62 (Non-Small Cell Lung Cancer), read-out: Cell Inhibition Percent
Description: as §1, §2, §3

HOP-92 = conditions: Homo sapiens, HOP-92 (Non-Small Cell Lung Cancer), read-out: Cell Inhibition Percent
Description: as §1, §2, §3

HS 578T = conditions: Homo sapiens, HS 578T (Breast Cancer), read-out: Cell Inhibition Percent
Description: as §1, §2, §3

K-562 = conditions: Homo sapiens, K562, K-562 (Leukemia), read-out: Cell Inhibition Percent
Description: as §1, §2, §3

KM12 = conditions: Homo sapiens, KM12 (Colon Cancer), read-out: Cell Inhibition Percent
Description: as §1, §2, §3

LOX IMVI = conditions: Homo sapiens, LOX IMVI (Melanoma), read-out: Cell Inhibition Percent
Description: as §1, §2, §3

M14 = conditions: Homo sapiens, M14 (Melanoma), read-out: Cell Inhibition Percent
Description: as §1, §2, §3

MDA-MB-435 = conditions: Homo sapiens, MDA-MB-435 (Melanoma), read-out: Cell Inhibition Percent
Description: as §1, §2, §3

MDA-MB-468 = conditions: Homo sapiens, MDA-MB-468 (Breast Cancer), read-out: Cell Inhibition Percent
Description: as §1, §2, §3

NCI-H322M = conditions: Homo sapiens, NCI-H322M (Non-Small Cell Lung Cancer), read-out: Cell Inhibition Percent
Description: as §1, §2, §3

NCI-H460 = conditions: Homo sapiens, NCI-H460 (Non-Small Cell Lung Cancer), read-out: Cell Inhibition Percent
Description: as §1, §2, §3

NCI-H522 = conditions: Homo sapiens, NCI-H522 (Non-Small Cell Lung Cancer), read-out: Cell Inhibition Percent
Description: as §1, §2, §3

OVCAR-4 = conditions: Homo sapiens, OVCAR-4 (ovarian cancer), read-out: Cell Inhibition Percent
Description: as §1, §2, §3

OVCAR-5 = conditions: Homo sapiens, OVCAR-5 (ovarian cancer), read-out: Cell Inhibition Percent
Description: as §1, §2, §3

RPMI-8226 = conditions: Homo sapiens, RPMI-8226 (Leukemia), read-out: Cell Inhibition Percent
Description: as §1, §2, §3

SK-OV-3 = conditions: Homo sapiens, SK-OV-3 (ovarian cancer), read-out: Cell Inhibition Percent
Description: as §1, §2, §3

SN12C = conditions: Homo sapiens, SN12C (Renal Cancer), read-out: Cell Inhibition Percent
Description: as §1, §2, §3

SR = conditions: Homo sapiens, SR (Leukemia), read-out: Cell Inhibition Percent
Description: as §1, §2, §3

T-47D = conditions: Homo sapiens, T47D, T-47D (Breast Cancer), read-out: Cell Inhibition Percent
Description: as §1, §2, §3

UACC-62 = conditions: Homo sapiens, UACC-62 (Melanoma), read-out: Cell Inhibition Percent
Description: as §1, §2, §3

UO-31 = conditions: Homo sapiens, UO-31 (Renal Cancer), read-out: Cell Inhibition Percent
Description: as §1, §2, §3

Structure (SMILES) | inhibition at 10 µM (786-0) [%] | inhibition at 10 µM (A498) [%] | inhibition at 10 µM (ACHN) [%] | inhibition at 10 µM (BT-549) [%] | inhibition at 10 µM (CAKI-1) [%] | inhibition at 10 µM (DU-145) [%] | inhibition at 10 µM (HCC-2998) [%] | inhibition at 10 µM (HCT-116) [%] | inhibition at 10 µM (HCT-15) [%] | inhibition at 10 µM (HL-60(TB)) [%] | inhibition at 10 µM (HOP-62) [%] | inhibition at 10 µM (HOP-92) [%] | inhibition at 10 µM (HS 578T) [%] | inhibition at 10 µM (K-562) [%] | inhibition at 10 µM (KM12) [%] | inhibition at 10 µM (LOX IMVI) [%] | inhibition at 10 µM (M14) [%] | inhibition at 10 µM (MDA-MB-435) [%] | inhibition at 10 µM (MDA-MB-468) [%] | inhibition at 10 µM (NCI-H322M) [%] | other results
CCn1c(-c2ccc3[nH]c(-c4ccc(Cl)cc4)nc3c2)n[nH]c1=S [Compound 6, 4-ethyl-5-(2-(4-chlorophenyl)-1H-benzimidazol-5-yl)-2,4-dihydro-3H-1,2,4triazole-3-thione] | 0 | 56.9 | 0 | 7.91 | 7.78 | 0 | 0 | 0 | 1.62 | 0 | 1.71 | 0.32 | 1.05 | 1.43 | 0 | 0 | 0 | 0 | 0 | 0 | inhibition at 10 µM (NCI-H460): 0%; inhibition at 10 µM (NCI-H522): 1.85%; inhibition at 10 µM (OVCAR-4): 0.6%; inhibition at 10 µM (OVCAR-5): 0%; inhibition at 10 µM (RPMI-8226): 0.68%; inhibition at 10 µM (SK-OV-3): 0%; inhibition at 10 µM (SN12C): 0%; inhibition at 10 µM (SR): 17.5%; inhibition at 10 µM (T-47D): 0.3%; inhibition at 10 µM (UACC-62): 1.04%; inhibition at 10 µM (UO-31): 16.8%
O=C(NN=Cc1ccc(F)cc1)c1ccc2[nH]c(-c3ccc(Cl)cc3)nc2c1 [Compound 4d, N′-(4-Fluorobenzylidene)-2-(4-chlorophenyl)-1H-benzimidazole-5-carbohydrazide] | 87.8 | 27.1 | 64.3 | 0 | 15.1 | 14.6 | 21 | 51.4 | 33.2 | 62.6 | 39.5 | 15.4 | 30 | 61.2 | 35.1 | 66 | 39.8 | 6.12 | 23.9 | 22.4 | inhibition at 10 µM (NCI-H460): 63.8%; inhibition at 10 µM (NCI-H522): 3.87%; inhibition at 10 µM (OVCAR-4): 63.6%; inhibition at 10 µM (OVCAR-5): 10.8%; inhibition at 10 µM (RPMI-8226): 32.5%; inhibition at 10 µM (SK-OV-3): 1.74%; inhibition at 10 µM (SN12C): 58.8%; inhibition at 10 µM (SR): 79.3%; inhibition at 10 µM (T-47D): 40.6%; inhibition at 10 µM (UACC-62): 11.8%; inhibition at 10 µM (UO-31): 24.6%
COc1ccc(C=NNC(=O)c2ccc3[nH]c(-c4ccc(Cl)cc4)nc3c2)cc1 [Compound 4g, N′-(4-Methoxybenzylidene)-2-(4-chlorophenyl)-1H-benzimidazole-5-carbohydrazide] | 96.8 | 33.4 | 78.1 | 43.1 | 39.5 | 20.7 | 48.9 | 81 | 42.5 | 3.67 | 69.7 | 64 | 67.7 | 68.1 | 82.7 | 99.1 | 73.8 | 31.5 | 75.8 | 44.1 | inhibition at 10 µM (NCI-H460): 94.1%; inhibition at 10 µM (NCI-H522): 17.4%; inhibition at 10 µM (OVCAR-4): 131%; inhibition at 10 µM (OVCAR-5): 22.7%; inhibition at 10 µM (RPMI-8226): 40.8%; inhibition at 10 µM (SK-OV-3): 27.7%; inhibition at 10 µM (SN12C): 93.8%; inhibition at 10 µM (SR): 99.3%; inhibition at 10 µM (T-47D): 76.7%; inhibition at 10 µM (UACC-62): 69.1%; inhibition at 10 µM (UO-31): 18.1%
